Results on 20 compounds are retold here after PubChem BioAssay (NCI).

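All cell lines were grown in 96-well plates and treated with compound for 48 hours. TGI is the concentration that stops growth completely.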

For the first assay, the system named is SK-OV-3 ovarian. Description: NCI anticancer screen, dose series, 48 h.
Compound `COc1ccc(/C=C2\N=C(N3CCCCC3)NC2=O)cc1` gave a TGI of over 100 µM.
The same measure, in the same setting: in the case of `CCCCC1(NN=C2CCCCC2)C(=O)N(c2ccccc2)N(c2ccccc2)C1=O` it was over 100 µM; in that of `Cc1nc2ccc(Br)cc2c(=O)n1-c1nnc(C(C)(C)C)s1`, over 10 µM.
Consider `COc1cc2c(cc1O)c(O)cc1c3cc(OC)c(OC)cc3c[n+](C)c21`, for which the TGI is over 100 µM.
Same read-out and setting: the same measure for `NC(N)=NS(=O)(=O)c1ccc(NNc2c3ccccc3nc3ccccc23)cc1`: 40.3 µM; for `COc1cc2c(cc1OCCCCCCCCCCN1C(=O)c3cccc4cccc(c34)C1=O)N=C[C@@H]1CCCN1C2=O`: 19.8 µM.
The same measure, in the same setting: in the case of `COc1ccc(Cn2c(=O)c(OC)c(C)c3cc4ccccc4cc32)cc1` it was over 100 µM.
`COC(=O)C1Cc2cc3c(cc2C1=O)CCC3` (stereo unspecified) came in with a TGI of over 100 µM.
`O=C1/C(=C\c2ccc([N+](=O)[O-])cc2)N(S(=O)(=O)c2ccccc2)c2ncccc21`: the TGI came out at 19.8 µM.
The same measure, in the same setting: the same measure for `CC(=O)SCCC(NC(=S)Nc1ccccc1)P(=O)(Oc1ccccc1)Oc1ccccc1` (stereo unspecified): over 100 µM.
In turn, `Nc1ccccc1CCN1CCN(CCCc2ccccc2)CC1` gave a TGI of over 100 µM.
Still for that read-out and setting: in the case of `O=C1NC(=S)N/C1=C\c1cccs1` it was over 100 µM; in that of `CSc1c(C(=O)Nc2ccccc2)c(N)n(N)c(=O)c1C#N`, over 100 µM.
Still for that read-out and setting: the same measure for `CC12C=CC(C)(C3C(=O)C4C(C(=O)C31)C1(C)C=CC4(C)S1=O)S2=O` (stereo unspecified): over 100 µM.

The subject of a further assay is SNB-19 CNS. In words: NCI anticancer screen, dose series, 48 h.
Regarding `O=C1CS(=O)(=O)C(c2cccc(Oc3ccccc3)c2)N1c1ccc(Cl)cc1` (stereo unspecified), the TGI was over 100 µM.
The same measure, in the same setting: in the case of `C=C(CCOC)CCC1CCCCC(CN(C)C)C1=O` (stereo unspecified) it was over 100 µM.
The same measure, in the same setting: in the case of `ONC1=Nc2cc(Cl)ccc2C(=S)N2CSCC12` (stereo unspecified) it was over 100 µM; in that of `COc1ccc(/C=C2\N=C(N3CCCCC3)NC2=O)cc1`, over 100 µM; in that of `CCCCC1(NN=C2CCCCC2)C(=O)N(c2ccccc2)N(c2ccccc2)C1=O`, over 100 µM.
Regarding `Cc1nc2ccc(Br)cc2c(=O)n1-c1nnc(C(C)(C)C)s1`, the TGI is over 10 µM.
Compound `COc1cc2c(cc1O)c(O)cc1c3cc(OC)c(OC)cc3c[n+](C)c21` yielded a TGI of over 100 µM.
On the same count and under the same terms, the same measure for `NC(N)=NS(=O)(=O)c1ccc(NNc2c3ccccc3nc3ccccc23)cc1`: 37.3 µM; for `COc1cc2c(cc1OCCCCCCCCCCN1C(=O)c3cccc4cccc(c34)C1=O)N=C[C@@H]1CCCN1C2=O`: 57.6 µM.
`O=C(NC1=C(Cl)C(=O)c2ccccc2C1=O)c1ccccc1`: the TGI is over 100 µM.
Still for that read-out and setting: the same measure for `COc1ccc(Cn2c(=O)c(OC)c(C)c3cc4ccccc4cc32)cc1`: over 100 µM.
The compound `COC(=O)C1Cc2cc3c(cc2C1=O)CCC3` (stereo unspecified) showed a TGI of over 100 µM.
Same read-out and setting: the same measure for `O=C1/C(=C\c2ccc([N+](=O)[O-])cc2)N(S(=O)(=O)c2ccccc2)c2ncccc21`: 65 µM; for `CC(=O)SCCC(NC(=S)Nc1ccccc1)P(=O)(Oc1ccccc1)Oc1ccccc1` (stereo unspecified): over 100 µM; for `Nc1ccccc1CCN1CCN(CCCc2ccccc2)CC1`: over 100 µM.
On the same count and under the same terms, the same measure for `O=C1NC(=S)N/C1=C\c1cccs1`: over 100 µM; for `CSc1c(C(=O)Nc2ccccc2)c(N)n(N)c(=O)c1C#N`: over 100 µM.
On the same count and under the same terms, the same measure for `CC(C)(C)C1CCC(=O)/C(=C/CC2CC(=O)N(c3ccccc3)C(=O)C2)C1` (stereo unspecified): 51.6 µM.
As for `CC12C=CC(C)(C3C(=O)C4C(C(=O)C31)C1(C)C=CC4(C)S1=O)S2=O` (stereo unspecified), the TGI is over 100 µM.

The test system of another assay is TK-10 renal. In words: NCI anticancer screen, dose series, 48 h.
Compound `O=C1CS(=O)(=O)C(c2cccc(Oc3ccccc3)c2)N1c1ccc(Cl)cc1` (stereo unspecified) yielded a TGI of 61.4 µM.
On the same count and under the same terms, in the case of `Clc1ccc(CCN(CCc2ccc(Cl)c(Cl)c2)CCN2CCCC2)cc1Cl` it was 3.17 µM.
Same read-out and setting: the same measure for `ONC1=Nc2cc(Cl)ccc2C(=S)N2CSCC12` (stereo unspecified): over 100 µM; for `COc1ccc(/C=C2\N=C(N3CCCCC3)NC2=O)cc1`: over 100 µM.
Same read-out and setting: the same measure for `CCCCC1(NN=C2CCCCC2)C(=O)N(c2ccccc2)N(c2ccccc2)C1=O`: over 100 µM; for `Cc1nc2ccc(Br)cc2c(=O)n1-c1nnc(C(C)(C)C)s1`: over 10 µM; for `COc1cc2c(cc1O)c(O)cc1c3cc(OC)c(OC)cc3c[n+](C)c21`: over 100 µM.
On to `NC(N)=NS(=O)(=O)c1ccc(NNc2c3ccccc3nc3ccccc23)cc1`, for which the TGI is 42.7 µM.
Same read-out and setting: in the case of `COc1cc2c(cc1OCCCCCCCCCCN1C(=O)c3cccc4cccc(c34)C1=O)N=C[C@@H]1CCCN1C2=O` it was over 100 µM; in that of `O=C(NC1=C(Cl)C(=O)c2ccccc2C1=O)c1ccccc1`, 52.5 µM.
On the same count and under the same terms, in the case of `COc1ccc(Cn2c(=O)c(OC)c(C)c3cc4ccccc4cc32)cc1` it was 70.8 µM; in that of `COC(=O)C1Cc2cc3c(cc2C1=O)CCC3` (stereo unspecified), over 100 µM; in that of `O=C1/C(=C\c2ccc([N+](=O)[O-])cc2)N(S(=O)(=O)c2ccccc2)c2ncccc21`, 31.9 µM.
On to `CC(=O)SCCC(NC(=S)Nc1ccccc1)P(=O)(Oc1ccccc1)Oc1ccccc1` (stereo unspecified), for which the TGI is over 100 µM.
Consider `Nc1ccccc1CCN1CCN(CCCc2ccccc2)CC1`, for which the TGI was over 100 µM.
The same measure, in the same setting: the same measure for `O=C1NC(=S)N/C1=C\c1cccs1`: over 100 µM; for `CSc1c(C(=O)Nc2ccccc2)c(N)n(N)c(=O)c1C#N`: over 100 µM.
The same measure, in the same setting: the same measure for `CC(C)(C)C1CCC(=O)/C(=C/CC2CC(=O)N(c3ccccc3)C(=O)C2)C1` (stereo unspecified): 31.8 µM.
Consider `CC12C=CC(C)(C3C(=O)C4C(C(=O)C31)C1(C)C=CC4(C)S1=O)S2=O` (stereo unspecified), for which the TGI is over 100 µM.

A further assay concerns UO-31 renal. Description: NCI anticancer screen, dose series, 48 h.
The compound `O=C1CS(=O)(=O)C(c2cccc(Oc3ccccc3)c2)N1c1ccc(Cl)cc1` (stereo unspecified) displayed a TGI of over 100 µM.
On the same count and under the same terms, in the case of `Clc1ccc(CCN(CCc2ccc(Cl)c(Cl)c2)CCN2CCCC2)cc1Cl` it was 3 µM; in that of `C=C(CCOC)CCC1CCCCC(CN(C)C)C1=O` (stereo unspecified), over 100 µM; in that of `ONC1=Nc2cc(Cl)ccc2C(=S)N2CSCC12` (stereo unspecified), over 100 µM.
The compound `COc1ccc(/C=C2\N=C(N3CCCCC3)NC2=O)cc1` came in with a TGI of over 100 µM.
Still for that read-out and setting: the same measure for `CCCCC1(NN=C2CCCCC2)C(=O)N(c2ccccc2)N(c2ccccc2)C1=O`: over 100 µM; for `Cc1nc2ccc(Br)cc2c(=O)n1-c1nnc(C(C)(C)C)s1`: 4.45 µM; for `COc1cc2c(cc1O)c(O)cc1c3cc(OC)c(OC)cc3c[n+](C)c21`: over 100 µM.
Consider `NC(N)=NS(=O)(=O)c1ccc(NNc2c3ccccc3nc3ccccc23)cc1`, for which the TGI came out at 66.7 µM.
On the same count and under the same terms, in the case of `COc1cc2c(cc1OCCCCCCCCCCN1C(=O)c3cccc4cccc(c34)C1=O)N=C[C@@H]1CCCN1C2=O` it was 28.5 µM.
Same read-out and setting: in the case of `COc1ccc(Cn2c(=O)c(OC)c(C)c3cc4ccccc4cc32)cc1` it was over 100 µM; in that of `COC(=O)C1Cc2cc3c(cc2C1=O)CCC3` (stereo unspecified), over 100 µM; in that of `O=C1/C(=C\c2ccc([N+](=O)[O-])cc2)N(S(=O)(=O)c2ccccc2)c2ncccc21`, 38.2 µM.
The compound `CC(=O)SCCC(NC(=S)Nc1ccccc1)P(=O)(Oc1ccccc1)Oc1ccccc1` (stereo unspecified) returned a TGI of over 100 µM.
Same read-out and setting: the same measure for `Nc1ccccc1CCN1CCN(CCCc2ccccc2)CC1`: over 100 µM.
On the same count and under the same terms, the same measure for `O=C1NC(=S)N/C1=C\c1cccs1`: over 100 µM; for `CSc1c(C(=O)Nc2ccccc2)c(N)n(N)c(=O)c1C#N`: over 100 µM.
`CC(C)(C)C1CCC(=O)/C(=C/CC2CC(=O)N(c3ccccc3)C(=O)C2)C1` (stereo unspecified) had a TGI of 30.2 µM.
Take `CC12C=CC(C)(C3C(=O)C4C(C(=O)C31)C1(C)C=CC4(C)S1=O)S2=O` (stereo unspecified): the TGI is over 100 µM.
